Experimental findings from patent US4841044A, “Cephalosporin derivatives” (Taisho Pharmaceutical Co., Ltd., priority 1985, dated 1989) are described below.

Each structure is given as a SMILES string. ≈ marks a conversion by molar mass, not a printed value. Read-outs that look alike come from different tables or passages of the source.

One may read the MIC as the least concentration at which growth counts as inhibited.

A short description of one data set: in vivo. The note with it: rat, blood, oral, 50 mg/kg, male wister rats (7 weeks old), bioassay (Escherichia coli SC507); for concentration at 4 h: Four Hours; for concentration at 1 h: One Hour; for concentration at 2 h: Two Hours. The protocol:
Male wister rats (7 weeks old) were administered orally with the test compound, and the change of the concentration of the compound in blood was measured.
Dosage of the test compound:
Quantitative method: Bioassay
(test bacterium: Escherichia coli SC507)

For data set [1], the system named is Proteus mirabilis IFO 3849. Briefly: Antibacterial activity (MIC), agar plate dilution method. The format is cell-based. The protocol:
(§1) The antibacterial activity of the compounds of the present invention against various bacteria (inoculum size: 10^6 cells/ml) were tested by the agar plate dilution method, and the results are shown in the following Table 1.

Data set [2] has as its system Klebsiella pneumoniae IFO 3317. The description is as above. In kind it is cell-based. The protocol: as §1
The subject of data set [3] is Escherichia coli NIHJ JC-2. The description is as above. In kind it is cell-based. The protocol: as §1
Data set [4] has as its system Serratia marcescens IID 618. The data set is described as above. The format is cell-based. The protocol: as §1

Regarding `CCNC(=O)/C=C\SC1=C(C(=O)[O-])N2C(=O)[C@@H](NC(=O)/C(=N\OCC(=O)[O-])c3csc(N)n3)[C@H]2SC1.[Na+].[Na+]`, the concentration at 4 h in “in vivo” was 24200 ng/mL. Further, in “in vivo”, the concentration at 1 h was 26800 ng/mL. In addition, in the data set “in vivo”, the concentration at 2 h was 34300 ng/mL. Moreover, the MIC came out at 0.025 µg/mL in data set [1] (Proteus mirabilis, IFO3849); 0.05 µg/mL in data set [2] (Klebsiella pneumoniae, IFO3317); 0.39 µg/mL in data set [3] (Escherichia coli, NIHJJC2); 0.39 µg/mL in data set [4] (Serratia marcescens, IID618).

Take `CN(C)C(=O)/C=C\SC1=C(C(=O)[O-])N2C(=O)[C@@H](NC(=O)/C(=N\OCC(=O)O)c3csc(N)n3)[C@H]2SC1.[Na+]` [A, 7β-{α-(2-aminothiazole-4-yl)-α-[(Z)-carboxymethoxyimino]acetamido}-3-[(Z)-2-N,N-dimethylaminocarbonylvinylthio]-3-cephem-4-carboxylic acid sodium salt]: the MIC was less than 0.025 µg/mL in data set [1] (Proteus mirabilis IFO 3849, inoculum size: 10^6 cells/ml, agar plate dilution); 0.05 µg/mL in data set [2] (Klebsiella pneumoniae IFO 3317, inoculum size: 10^6 cells/ml, agar plate dilution); 0.2 µg/mL in data set [3] (Escherichia coli NIHJ JC-2, inoculum size: 10^6 cells/ml, agar plate dilution); 0.2 µg/mL in data set [4] (Serratia marcescens IID 618, inoculum size: 10^6 cells/ml, agar plate dilution).

`CNC(=O)/C=C\SC1=C(C(=O)O)N2C(=O)[C@@H](NC(=O)/C(=N\OCC(=O)O)c3csc(N)n3)[C@H]2SC1` [C] gave a concentration at 4 h in the data set “in vivo” of 22400 ng/mL. For the same molecule, in “in vivo”, the concentration at 1 h is 20800 ng/mL. Moreover, the concentration at 2 h in the data set “in vivo” stood at 26600 ng/mL. Also, the MIC was 0.025 µg/mL (≈ 0.0461 µM) in data set [1] (IFO3849, Proteus mirabilis IFO 3849, inoculum size: 10^6 cells/ml, agar plate dilution, read-out: MIC); 0.05 µg/mL (≈ 0.0922 µM) in data set [2] (IFO3317, Klebsiella pneumoniae IFO 3317, inoculum size: 10^6 cells/ml, agar plate dilution, read-out: MIC); 0.2 µg/mL (≈ 0.369 µM) in data set [3] (NIHJJC2, Escherichia coli NIHJ JC-2, inoculum size: 10^6 cells/ml, agar plate dilution, read-out: MIC); 0.39 µg/mL (≈ 0.719 µM) in data set [4] (IID618, Serratia marcescens IID 618, inoculum size: 10^6 cells/ml, agar plate dilution, read-out: MIC).

For `CC1=C(C(=O)O)N2C(=O)[C@@H](NC(=O)[C@H](N)c3ccccc3)[C@H]2SC1` [YY, Cefalexin, reference compound], the MIC in data set [1] (Proteus mirabilis, IFO3849) is 12.5 µg/mL (≈ 36 µM); in data set [2] (Klebsiella pneumoniae, IFO3317) it was 6.25 µg/mL (≈ 18 µM); in data set [3] (Escherichia coli, NIHJJC2), 12.5 µg/mL (≈ 36 µM); in data set [4] (Serratia marcescens, IID618) it was more than 100 µg/mL.
